Laboratory results reported in BindingDB's records for doi:10.1021/bi050490d (Case Western Reserve University, 2005).

Target: Kappa-type opioid receptor (Homo sapiens, UniProt P41145)
Sequence (P41145 whole entry): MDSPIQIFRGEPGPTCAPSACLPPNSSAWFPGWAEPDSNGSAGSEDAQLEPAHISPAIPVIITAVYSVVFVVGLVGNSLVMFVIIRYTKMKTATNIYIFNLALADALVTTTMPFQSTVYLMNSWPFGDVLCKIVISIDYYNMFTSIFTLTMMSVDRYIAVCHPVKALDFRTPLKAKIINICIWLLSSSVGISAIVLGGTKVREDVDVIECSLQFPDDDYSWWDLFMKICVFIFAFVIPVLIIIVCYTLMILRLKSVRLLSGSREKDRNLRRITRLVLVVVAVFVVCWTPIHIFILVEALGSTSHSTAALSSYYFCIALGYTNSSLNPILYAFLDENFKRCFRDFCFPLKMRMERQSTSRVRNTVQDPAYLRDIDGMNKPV

CC[C@H](C)[C@H](NC(=O)[C@H](CCCNC(=N)N)NC(=O)[C@H](CCCNC(=N)N)NC(=O)[C@H](CC(C)C)NC(=O)[C@H](Cc1ccccc1)NC(=O)CNC(=O)CNC(=O)[C@@H](N)Cc1ccc(O)cc1)C(=O)N[C@@H](CCCNC(=N)N)C(=O)N1CCC[C@H]1C(=O)N[C@@H](CCCCN)C(=O)N[C@@H](CC(C)C)C(=O)N[C@@H](CCCCN)C(=O)O [Dynorphin A (1-13)]
Ki: 0.343 µM
